{"source": "patent US6610708B1", "about": "“Cyclic amino compounds” (Sankyo Company, Limited, priority 1998, dated 2003)", "key": {"[1]": {"test_system": "Human Platelets", "test": "Antiaggregatory action in human platelets (ADP-induced aggregation in platelet-rich plasma)", "assay_type": "cell-based", "conditions": "human PRP; for inhibition at 10 µg/mL / inhibition at 30 µg/mL / inhibition at 100 µg/mL: Platelet, read-out: Test 1 (% inhibition) of platelet aggregation", "procedure": "Antiaggregatory Action in Human Platelets\nPlatelet aggregation was measured using an automatic platelet aggregometer (PAM-8C, Mebanix) using the method of G.V.R. Born [Nature, 194, 927-929 ([…])] with a slight modification. Blood was collected from the antecubital vein of healthy volunteers who had not taken any medications for two weeks using 3.8% sodium citrate as an anticoagulant ( 1/9 volumes of blood). Platelet-rich plasma (PRP) was obtained by centrifugation (CR5DL, Hitachi) at 200× g for 15 min at room temperature. Platelet-poor plasma (PPP) was obtained by centrifugation of the remaining blood at 2,000× g for 10 min at room temperature. Platelet counts in PRP were measured by an automatic hematology analyzer (K-1000, Toa Iyo Denshi), and adjusted to 3×10^8 /ml by adding PPP. PRP prepared as described above was used for the platelet aggregation experiment. PRP (0.24 ml) containing a test compound was added to a cuvette and set placed in the platelet aggregometer. After pre-incubation for 1.5 min at 37° C., 0.01 ml of 0.25 mM ADP were added to the cuvette to induce platelet aggregation. Platelet aggregation was monitored for 10 min.\nAntiaggregatory action of the test compound was determined as a percent inhibition (%) against platelet aggregation of a control (free of the test compound)."}}}
{"smiles": "O=C(C1CC1)C(c1ccccc1F)N1CCC(SSc2ccc([N+](=O)[O-])cc2[N+](=O)[O-])CC1", "note": "(centres unmarked)", "values": [{"measurement": "melting point", "result": "120 to 127", "unit": "°C"}]}
{"smiles": "COC(=O)C(c1ccccc1Cl)N1CCC(SS(=O)(=O)c2ccc(C)cc2)CC1", "note": "(stereo not drawn) [Example 2 (d), 1-(2-Chloro-α-methoxycarbonylbenzyl)-4-(4-methylphenylsulfonylthio)-piperidine]", "values": [{"measurement": "inhibition at 10 µg/mL", "setting": "[1]; 10 μg/ml test compound", "result": 32.8, "unit": "%"}, {"measurement": "inhibition at 30 µg/mL", "setting": "[1]; 30 μg/ml test compound", "result": 97.1, "unit": "%"}, {"measurement": "inhibition at 100 µg/mL", "setting": "[1]; 100 μg/ml test compound", "result": 98, "unit": "%"}]}
{"smiles": "COC(=O)C(c1ccccc1Cl)N1CCC(SS(=O)(=O)c2ccc(C)cc2)CC1", "note": "(stereo not drawn) [Example 2, 1-(2-Chloro-α-methoxycarbonylbenzyl)-4-(4-methylphenylsulfonylthio)-piperidine]", "values": [{"measurement": "melting point", "result": "100 to 115", "unit": "°C"}]}
{"smiles": "COC(=O)C(c1ccccc1F)N1CCC(SS(=O)(=O)c2ccc(C)cc2)CC1", "note": "(stereo not drawn) [Example 3 (d), 1-(2-Fluoro-α-methoxycarbonylbenzyl)-4-(4-methylphenylsulfonylthio)-piperidine]", "values": [{"measurement": "inhibition at 10 µg/mL", "setting": "[1]; 10 μg/ml test compound", "result": 24.4, "unit": "%"}, {"measurement": "inhibition at 30 µg/mL", "setting": "[1]; 30 μg/ml test compound", "result": 89.3, "unit": "%"}, {"measurement": "inhibition at 100 µg/mL", "setting": "[1]; 100 μg/ml test compound", "result": 99.8, "unit": "%"}]}
{"smiles": "Cc1ccc(S(=O)(=O)SC2CCN(C(C(=O)C3CC3)c3ccccc3F)C2)cc1", "note": "(stereo not drawn) [Example 4 (d), 1-(α-Cyclopropylcarbonyl-2-fluorobenzyl)-3-(4-methylphenylsulfonylthio)-pyrrolidine]", "values": [{"measurement": "inhibition at 10 µg/mL", "setting": "[1]; 10 μg/ml test compound", "result": 30.6, "unit": "%"}, {"measurement": "inhibition at 30 µg/mL", "setting": "[1]; 30 μg/ml test compound", "result": 77.6, "unit": "%"}, {"measurement": "inhibition at 100 µg/mL", "setting": "[1]; 100 μg/ml test compound", "result": 99.5, "unit": "%"}]}
{"smiles": "Cc1ccc(S(=O)(=O)SC2CN(C(C(=O)C3CC3)c3ccccc3F)C2)cc1", "note": "(stereo not drawn) [Example 5 (d), 1-(α-Cyclopropylcarbonyl-2-fluorobenzyl)-3-(4-methylphenylsulfonylthiol)-azetidine]", "values": [{"measurement": "Test 1 (% inhibition) of platelet aggregation", "setting": "[1]; 10 μg/ml test compound", "result": 37.1, "unit": "%"}, {"measurement": "Test 1 (% inhibition) of platelet aggregation", "setting": "[1]; 30 μg/ml test compound", "result": 98.4, "unit": "%"}, {"measurement": "Test 1 (% inhibition) of platelet aggregation", "setting": "[1]; 100 μg/ml test compound", "result": 99.6, "unit": "%"}]}
{"smiles": "O=C(C1CC1)C(c1ccccc1F)N1CCC(SS(=O)(=O)c2ccccc2)CC1", "note": "(stereo not drawn) [Example 9 (b), 1-(α-Cyclopropylcarbonyl-2-fluorobenzyl)-4-phenylsulfonylthiopiperidine]", "values": [{"measurement": "inhibition at 10 µg/mL", "setting": "[1]; 10 μg/ml test compound", "result": 23.4, "unit": "%"}, {"measurement": "inhibition at 30 µg/mL", "setting": "[1]; 30 μg/ml test compound", "result": 97.3, "unit": "%"}, {"measurement": "inhibition at 100 µg/mL", "setting": "[1]; 100 μg/ml test compound", "result": 94, "unit": "%"}]}
{"smiles": "O=C(C1CC1)C(c1ccccc1F)N1CCC(SS(=O)(=O)c2ccc(Cl)cc2)CC1", "note": "(stereo not drawn) [Example 10 (b), 4-(4-Chlorophenylsulfonylthio)-1-(α-cyclopropylcarbonyl-2-fluorobenzyl)-piperidine]", "values": [{"measurement": "inhibition at 10 µg/mL", "setting": "[1]; 10 μg/ml test compound", "result": 35.2, "unit": "%"}, {"measurement": "inhibition at 30 µg/mL", "setting": "[1]; 30 μg/ml test compound", "result": 96.2, "unit": "%"}, {"measurement": "inhibition at 100 µg/mL", "setting": "[1]; 100 μg/ml test compound", "result": 98.8, "unit": "%"}]}
{"smiles": "O=C(C1CC1)C(c1ccccc1F)N1CCC(SS(=O)(=O)c2ccc(F)cc2)CC1", "note": "(stereo not drawn) [Example 11 (b), 1-(α-Cyclopropylcarbonyl-2-fluorobenzyl)-4-(4-fluorophenylsulfonylthio)-piperidine]", "values": [{"measurement": "inhibition at 10 µg/mL", "setting": "[1]; 10 μg/ml test compound", "result": 15.5, "unit": "%"}, {"measurement": "inhibition at 30 µg/mL", "setting": "[1]; 30 μg/ml test compound", "result": 98, "unit": "%"}, {"measurement": "inhibition at 100 µg/mL", "setting": "[1]; 100 μg/ml test compound", "result": 92.5, "unit": "%"}]}
{"smiles": "COc1ccc(S(=O)(=O)SC2CCN(C(C(=O)C3CC3)c3ccccc3F)CC2)cc1", "note": "(stereo not drawn) [Example 12 (b), 1-(α-Cyclopropylcarbonyl-2-fluorobenzyl)-4-(4-methoxyphenylsulfonylthio)piperidine]", "values": [{"measurement": "inhibition at 10 µg/mL", "setting": "[1]; 10 μg/ml test compound", "result": 19.2, "unit": "%"}, {"measurement": "inhibition at 30 µg/mL", "setting": "[1]; 30 μg/ml test compound", "result": 93.9, "unit": "%"}, {"measurement": "inhibition at 100 µg/mL", "setting": "[1]; 100 μg/ml test compound", "result": 100, "unit": "%"}]}
{"smiles": "Cc1ccc([S+]([O-])SC2CCN(C(C(=O)C3CC3)c3ccccc3F)CC2)cc1", "note": "(stereo not drawn) [Example 13 (b), 1-(α-Cyclopropylcarbonyl-2-fluorobenzyl)-4-(4-methylphenylsulfinylthio)-piperidine]", "values": [{"measurement": "inhibition at 10 µg/mL", "setting": "[1]; 10 μg/ml test compound", "result": 13.3, "unit": "%"}, {"measurement": "inhibition at 30 µg/mL", "setting": "[1]; 30 μg/ml test compound", "result": 40, "unit": "%"}, {"measurement": "inhibition at 100 µg/mL", "setting": "[1]; 100 μg/ml test compound", "result": 91.8, "unit": "%"}]}
{"smiles": "Cc1ccc([S+]([O-])SC2CCN(C(C(=O)C3CC3)c3ccccc3F)C2)cc1", "note": "(stereo not drawn) [Example 14 (b), 1-(α-Cyclopropylcarbonyl-2-fluorobenzyl)-3-(4-methylphenylsulfinylthio)-pyrrolidine]", "values": [{"measurement": "inhibition at 10 µg/mL", "setting": "[1]; 10 μg/ml test compound", "result": 28.6, "unit": "%"}, {"measurement": "inhibition at 30 µg/mL", "setting": "[1]; 30 μg/ml test compound", "result": 64, "unit": "%"}, {"measurement": "inhibition at 100 µg/mL", "setting": "[1]; 100 μg/ml test compound", "result": 95.8, "unit": "%"}]}
{"smiles": "C[S+]([O-])SC1CCN(C(C(=O)C2CC2)c2ccccc2F)CC1", "note": "(stereo not drawn) [Example 15 (b), 1-(α-Cyclopropylcarbonyl-2-fluorobenzyl)-4-methylsulfinylthiopiperidine]", "values": [{"measurement": "inhibition at 10 µg/mL", "setting": "[1]; 10 μg/ml test compound", "result": 12.3, "unit": "%"}, {"measurement": "inhibition at 30 µg/mL", "setting": "[1]; 30 μg/ml test compound", "result": 28.1, "unit": "%"}, {"measurement": "inhibition at 100 µg/mL", "setting": "[1]; 100 μg/ml test compound", "result": 71.1, "unit": "%"}]}
